Laboratory results reported in publication PMC10731637, “Design, Synthesis, and Biological Studies of Flavone-Based Esters and Acids as Potential P450 2A6 Inhibitors” (Chemical Research in Toxicology, 2023).

Target: T1, Cytochrome P450 2A6 (CYP2A6) (Homo sapiens, UniProt P11509)
T1 sequence (P11509 1-494): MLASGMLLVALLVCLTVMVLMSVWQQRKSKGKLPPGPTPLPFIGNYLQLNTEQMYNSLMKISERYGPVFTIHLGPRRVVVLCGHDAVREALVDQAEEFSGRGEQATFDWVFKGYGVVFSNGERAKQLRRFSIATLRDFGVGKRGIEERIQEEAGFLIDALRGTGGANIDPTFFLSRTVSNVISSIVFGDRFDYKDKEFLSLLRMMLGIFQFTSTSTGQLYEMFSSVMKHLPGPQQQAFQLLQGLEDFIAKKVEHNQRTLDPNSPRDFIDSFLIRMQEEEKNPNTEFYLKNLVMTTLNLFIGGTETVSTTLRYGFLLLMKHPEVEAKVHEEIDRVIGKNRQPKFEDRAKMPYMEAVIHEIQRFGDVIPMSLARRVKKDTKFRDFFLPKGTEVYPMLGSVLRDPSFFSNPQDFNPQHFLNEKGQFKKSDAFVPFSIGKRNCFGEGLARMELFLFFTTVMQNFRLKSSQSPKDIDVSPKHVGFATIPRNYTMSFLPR
Assay: Vivid CYP450 fluorescence inhibition assay with CYP2A6 baculosomes, 10-point dose-response
Type: biochemical

O=C(O)COc1ccccc1-c1cc(=O)c2ccccc2o1 [compound 6, 2-(2-(4-Oxo-4H-chromen-2-yl)phenoxy)acetic Acid]
IC50: 1.57 µM

CCOC(=O)COc1ccccc1-c1cc(=O)c2ccccc2o1 [compound 1, Ethyl 2-(2-(4-Oxo-4H-chromen-2-yl)phenoxy)acetate]
IC50: 37.9 µM

CCOC(=O)COc1c(-c2ccccc2)oc2ccccc2c1=O [compound 2, Ethyl 2-((4-Oxo-2-phenyl-4H-chromen-3-yl)oxy)acetate]
IC50: 4.61 µM
